Data on one compound can be found in ChEMBL document CHEMBL6103619, “Discovery of a Novel CRBN-Recruiting cGAS PROTAC Degrader for the Treatment of Ulcerative Colitis” (J Med Chem, 2025).

One may read the Emax as the size of the effect at its maximum, as opposed to the concentration needed. Usually clearance stands for the volume of plasma or blood freed of the substance per unit of time. A low value points to a low capacity for elimination. What is called Cmax is the highest concentration seen after dosing. As a reminder, the AUC(0-t) is the area under the concentration-time curve up to a stated or last time point. Low readings indicate low exposure, high ones high exposure. Broadly, the AUC(0-inf) is total exposure, with the tail of the curve extrapolated. Usually MRT last stands for a mean duration of stay, worked out from the concentration-time curve.

One data set relates to RAW-Lucia ISG. Put plainly: Potency index, ratio of 1-(6,7-dichloro-9-(1-methyl-1H-pyrazol-3-yl)-1,3,4,5-tetrahydro-2H-pyrido[4,3-b]indol-2-yl)-2-hydroxyethan-1-one IC50 to test compound IC50 for inhibition of dsDNA-induced cGAS signaling pathway in mouse RAW-Lucia ISG cells preincubated with compound for 24 hrs followed by HT-DNA addition and measured after 24 hrs by QUANTI-Luc luciferase reagent based assay. The class given is cell-based. The note with it: time 48.0 hrs.

The target in data set [1] is T1, Protein cereblon/Cyclic GMP-AMP synthase (Homo sapiens, UniProt Q96SW2+Q8N884). Briefly: PROTAC activity at CRBN/cGAS in human THP-1 cells assessed as induction of cGAS degradation by measuring maximal efficacy at 20 uM preincubated with compound for 40 hrs followed by HT-DNA stimulation and measured after 8 hrs by Western blot analysis relative to control. Type of data set: cell-based. The note with it: time 48.0 hrs. A general note: Immunoblotting shows a protein as a band on a membrane.

Data set [2] has as its target Protein cereblon/Cyclic GMP-AMP synthase (Mus musculus) (UniProt Q8C6L5+Q8C7D2). Briefly: PROTAC activity at CRBN/cGAS in mouse RAW264.7 cells assessed as induction of cGAS degradation by measuring maximal efficacy at 20 uM preincubated with compound for 40 hrs followed by HT-DNA stimulation and measured after 8 hrs by Western blot analysis relative to control. Type of data set: cell-based. The following applies: time 48.0 hrs.

Data set [3] concerns the target T1, Protein cereblon/Cyclic GMP-AMP synthase. Briefly: PROTAC activity at CRBN/cGAS in human THP-1 cells assessed as induction of cGAS degradation at 10 uM preincubated with 1-(6,7-dichloro-9-(1-methyl-1H-pyrazol-3-yl)-1,3,4,5-tetrahydro-2H-pyrido[4,3-b]indol-2-yl)-2-hydroxyethan-1-one for 2 hrs followed by compound addition and measured after 48 hrs by Western blot analysis. Type of data set: cell-based.

For data set [4], the system named is THP-1. Put plainly: Inhibition of ds-DNA induced cGAS-STING signaling pathway in human THP-1 cells assessed as reduction in IRF3 phosphorylation preincubated with compound for 40 hrs followed by HT-DNA addition and measured after 8 hrs by Western blot analysis. Type of data set: cell-based. The following applies: dose 0.7-20 µM, time 48.0 hrs.
In data set [5] the test system is RAW264.7. Put plainly: Downregulation of IFNB mRNA expression in mouse RAW264.7 cells preincubated with compound for 40 hrs followed by HT-DNA addition and measured after 8 hrs by qRT-PCR analysis. The class given is functional, cell-based. The following applies: dose 2.5-20 µM, time 48.0 hrs. Background: Real-time PCR tracks product formation cycle by cycle.
The subject of data set [6] is RAW264.7. Put plainly: Downregulation of CXCL10 mRNA expression in mouse RAW264.7 cells preincubated with compound for 40 hrs followed by HT-DNA addition and measured after 8 hrs by qRT-PCR analysis. The class given is functional, cell-based. The note with it: dose 2.5-20 µM, time 48.0 hrs.
Data set [7] relates to THP-1. Put plainly: Downregulation of IFNB mRNA expression level in ISD-induced human THP-1 cells at 20 uM preincubated with compound for 12 hrs followed by 45-bp immune stimulatory DNA addition and measured after 8 hrs by RT-qPCR analysis. Type of data set: functional, cell-based. The note with it: time 20.0 hrs.
The subject of data set [8] is THP-1. Briefly: Downregulation of IFNB mRNA expression level in HSV-1-induced human THP-1 cells at 20 uM preincubated with compound for 12 hrs followed by HSV1 addition and measured after 8 hrs by RT-qPCR analysis. Type of data set: functional, cell-based. The following applies: time 20.0 hrs.
A short description of data set [9]: Cytotoxicity against human THP1-Lucia ISG cells assessed as reduction in cell viability upto 60 uM incubated for 48 hrs by CCK8 assay. Type of data set: toxicity, cell-based. A general note: Tetrazolium dyes change colour on reduction, which living cells bring about.
The nature of data set [10]: Clearance in male C57BL/6 mouse at 1 mg/kg, iv measured after 24 hrs by LC-MS/MS analysis. The class given is ADME, organism-based. The note with it: in vivo.
The nature of data set [11]: Cmax in male C57BL/6 mouse at 20 mg/kg, ip measured after 24 hrs by LC-MS/MS analysis. Type of data set: ADME, organism-based. The note with it: in vivo.
The nature of data set [12]: AUC (0 to 24 hrs) in male C57BL/6 mouse at 20 mg/kg, ip measured after 24 hrs by LC-MS/MS analysis. The class given is ADME, organism-based. The note with it: in vivo.
The nature of data set [13]: AUC (0 to infinity) in male C57BL/6 mouse at 20 mg/kg, ip measured after 24 hrs by LC-MS/MS analysis. The class given is ADME, organism-based. The following applies: in vivo.
The nature of data set [14]: MRT (0 to 24 hrs) in male C57BL/6 mouse at 20 mg/kg, ip measured after 24 hrs by LC-MS/MS analysis. The class given is ADME, organism-based. The note with it: in vivo.
Data set [15] deals with Mus musculus. Briefly: Anti-inflammatory activity in DSS-induced ulcerative colitis C57BL/6 mouse model assessed as decrease in body weight loss at 20 to 50 mg/kg/day, ip preadministered with DSS for 7 days followed by replacement with ultrapure water for 3 days with subsequent compound administration starting from day 4 to 10 and measured on day 11. The class given is functional, organism-based. The following applies: dose 20-50 mg/kg/day, time 8.0 day.

The test system of data set [16] is Mus musculus. Briefly: Anti-inflammatory activity in DSS-induced ulcerative colitis C57BL/6 mouse model assessed as decrease in disease activity index at 20 to 50 mg/kg/day, ip preadministered with DSS for 7 days followed by replacement with ultrapure water for 3 days with subsequent compound administration starting from day 4 to 10 and measured on day 11. The class given is functional, organism-based. The note with it: dose 20-50 mg/kg/day, time 8.0 day.

In data set [17] the test system is Mus musculus. Put plainly: Anti-inflammatory activity in DSS-induced ulcerative colitis C57BL/6 mouse model assessed as improvement in colon pathology at 20 to 50 mg/kg/day, ip preadministered with DSS for 7 days followed by replacement with ultrapure water for 3 days with subsequent compound administration starting from day 4 to 10 and measured on day 11 by H and E staining based analysis. Type of data set: functional, organism-based. The note with it: dose 20-50 mg/kg/day, time 8.0 day.

Data set [18] relates to Mus musculus. Put plainly: Anti-inflammatory activity in DSS-induced ulcerative colitis C57BL/6 mouse model assessed as reduction in NET generation by measuring reduction in citH3 level in colon at 20 to 50 mg/kg/day, ip preadministered with DSS for 7 days followed by replacement with ultrapure water for 3 days with subsequent compound administration starting from day 4 to 10 and measured on day 11 by Western blot analysis. The following applies: dose 20-50 mg/kg/day, time 8.0 day. Type of data set: functional, organism-based.

Active and inactive are the calls of the source. The calls are words filed in the database; no cut-off is given here.

T1 sequence (Q8N884 whole entry, looked up): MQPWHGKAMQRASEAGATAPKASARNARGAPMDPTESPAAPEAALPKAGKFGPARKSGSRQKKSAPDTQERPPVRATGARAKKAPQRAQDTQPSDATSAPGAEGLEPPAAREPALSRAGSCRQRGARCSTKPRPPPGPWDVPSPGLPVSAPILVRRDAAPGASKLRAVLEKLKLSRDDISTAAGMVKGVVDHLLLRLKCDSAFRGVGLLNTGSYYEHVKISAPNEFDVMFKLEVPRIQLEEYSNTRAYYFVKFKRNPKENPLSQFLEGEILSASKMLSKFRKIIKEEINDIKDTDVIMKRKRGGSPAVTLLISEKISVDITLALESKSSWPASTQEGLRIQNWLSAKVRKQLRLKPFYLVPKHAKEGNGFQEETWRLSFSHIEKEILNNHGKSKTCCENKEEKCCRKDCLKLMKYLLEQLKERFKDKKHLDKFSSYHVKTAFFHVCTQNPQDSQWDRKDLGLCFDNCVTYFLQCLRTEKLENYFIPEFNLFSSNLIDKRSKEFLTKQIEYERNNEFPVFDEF
T1 sequence (Q96SW2 whole entry, looked up): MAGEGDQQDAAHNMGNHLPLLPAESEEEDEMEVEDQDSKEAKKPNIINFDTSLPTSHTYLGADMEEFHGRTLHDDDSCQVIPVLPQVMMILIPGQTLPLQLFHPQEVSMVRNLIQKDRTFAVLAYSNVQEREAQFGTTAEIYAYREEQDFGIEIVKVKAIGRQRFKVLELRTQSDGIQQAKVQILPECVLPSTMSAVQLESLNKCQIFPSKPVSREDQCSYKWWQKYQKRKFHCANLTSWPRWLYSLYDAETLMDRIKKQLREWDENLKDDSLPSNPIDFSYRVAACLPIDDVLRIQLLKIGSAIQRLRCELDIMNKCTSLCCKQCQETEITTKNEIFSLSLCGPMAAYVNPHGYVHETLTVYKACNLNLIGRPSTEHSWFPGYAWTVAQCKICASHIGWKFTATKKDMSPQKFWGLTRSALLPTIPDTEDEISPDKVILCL
Chain of Protein cereblon/Cyclic GMP-AMP synthase (Mus musculus) (Q8C6L5 whole entry, looked up): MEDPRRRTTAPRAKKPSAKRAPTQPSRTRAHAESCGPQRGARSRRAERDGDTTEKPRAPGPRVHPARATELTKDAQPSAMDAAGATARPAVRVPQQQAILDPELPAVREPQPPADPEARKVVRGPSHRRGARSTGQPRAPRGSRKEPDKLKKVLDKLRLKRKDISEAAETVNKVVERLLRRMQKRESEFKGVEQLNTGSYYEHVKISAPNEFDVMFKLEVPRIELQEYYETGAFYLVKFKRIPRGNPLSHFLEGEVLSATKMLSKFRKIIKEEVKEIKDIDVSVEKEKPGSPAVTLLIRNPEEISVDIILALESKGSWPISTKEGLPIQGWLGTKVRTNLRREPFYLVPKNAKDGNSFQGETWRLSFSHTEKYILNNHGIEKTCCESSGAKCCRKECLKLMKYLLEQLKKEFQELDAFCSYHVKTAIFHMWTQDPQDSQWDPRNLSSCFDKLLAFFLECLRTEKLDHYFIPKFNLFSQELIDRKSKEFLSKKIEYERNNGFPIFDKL
Chain of Protein cereblon/Cyclic GMP-AMP synthase (Mus musculus) (Q8C7D2 whole entry, looked up): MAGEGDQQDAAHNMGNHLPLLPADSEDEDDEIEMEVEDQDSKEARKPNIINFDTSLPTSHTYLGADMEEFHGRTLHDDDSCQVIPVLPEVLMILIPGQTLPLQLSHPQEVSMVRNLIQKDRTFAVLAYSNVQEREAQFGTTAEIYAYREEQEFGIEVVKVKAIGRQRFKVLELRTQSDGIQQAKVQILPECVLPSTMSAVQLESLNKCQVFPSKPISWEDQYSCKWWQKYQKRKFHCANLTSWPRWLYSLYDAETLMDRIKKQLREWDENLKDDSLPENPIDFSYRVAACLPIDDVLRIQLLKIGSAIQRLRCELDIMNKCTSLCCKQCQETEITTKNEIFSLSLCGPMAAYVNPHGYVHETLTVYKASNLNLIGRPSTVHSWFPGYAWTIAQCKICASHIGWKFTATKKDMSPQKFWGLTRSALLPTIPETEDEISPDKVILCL

In the case of `Cn1ccc(-c2cc(Cl)c(Cl)c3[nH]c4c(c23)CN(C(=O)CNC(=O)CCCC#Cc2cccc3c2CN(C2CCC(=O)NC2=O)C3=O)CC4)n1` (centres undefined), the Ratio IC50 in the data set with RAW-Lucia ISG stood at 3. In addition, the figures for the maximum response (Emax) in data set [1] and in data set [2] were 94.4% and 91.6%, respectively. For the same compound, in data set [3], the outcome was inactive. Also, the inhibition result with THP-1 [4] was “Dose-dependent-effect”. In addition, the figures for the Activity entry (with RAW264.7 [5]; in the data set on RAW264.7 [6]; in data set [9]) were “Dose-dependent-effect”, “Dose-dependent-effect” and “Non-toxic”, respectively. In addition, the outcome in the data set with THP-1 [7], in the data set on THP-1 [8], in the data set on Mus musculus [15], in the data set on Mus musculus [16], with Mus musculus [17] and in the data set with Mus musculus [18] was Active. Besides, in [10], the clearance is 31.7 mL/min/kg. The Cmax in data set [11] stood at 248 ng/mL. This compound also returned an AUC(0-t) at 24 h in data set [12] of 2020 ng·h/mL. This compound also displayed an AUC(0-inf) in data set [13] of 2800 ng·h/mL. Moreover, the mean residence time (MRT last) at 24 h in [14] was found to be 7.9 h.
